Tested on: immunoglobulin light chain protein WIL-FL T46L
Assay: Differential scanning fluorimetry (thermal shift) assay
Assay type: binding
Details: Table B; temperature shift [Tm]compound-[Tm]vehicle; recombinant WIL-FL T46L

| SMILES | DSF |
| --- | --- |
| Cc1cc(N2CC[C@](C)(c3ccccc3)C2)cn2nc(C(=O)NC3CC4(C3)CN(C(=O)C3CCC(C(=O)O)O3)C4)nc12 (stereo partly drawn) [Compound 596, 5-[6-[[8-methyl-6-[(3R)-3-methyl-3-phenyl-pyrrolidin-1-yl]-[1,2,4]triazolo[1,5-a]pyridine-2-carbonyl]amino]-2-azaspiro[3.3]heptane-2-carbonyl]tetrahydrofuran-2-carboxylic acid] | ***** (>2.5° C.=*****) |
| CNC(=O)C12CC(NC(=O)c3nc4c(C)cc(N5CC[C@](C)(c6ccccc6)C5)cn4n3)(CO1)C2 [Compound 597] | ***** (>2.5° C.=*****) |
| Cc1cc(N2CC[C@](C)(c3ccccc3)C2)cn2nc(C(=O)N3CCC4(COCC(C(=O)O)O4)C3)nc12 (stereo partly drawn) [Compound 598] | ***** (>2.5° C.=*****) |
| Cc1cc(N2CC[C@](C)(c3ccccc3)C2)cn2nc(C(=O)NC3CC4(C3)CC(N3CCC(C(=O)O)CC3)C4)nc12 (stereo partly drawn) [Compound 599] | ***** (>2.5° C.=*****) |
| Cc1cc(N2CC[C@](C)(c3ccccc3)C2)cn2nc(C(=O)NC3CC4(C3)CC(N3CC(C(=O)O)C3)C4)nc12 (stereo partly drawn) [Compound 600] | ***** (>2.5° C.=*****) |
| Cc1cc(N2CC[C@](C)(c3ccccc3)C2)cn2nc(C(=O)NC3CC4(C3)CN(C(=O)CC(C)(C)C(=O)O)C4)nc12 [Compound 601] | ***** (>2.5° C.=*****) |
| Cc1cc(N2CC[C@](C)(c3ccccc3)C2)cn2nc(C(=O)NC34CCC(CO)(CC3)OC4)nc12 [Compound 602] | ***** (>2.5° C.=*****) |
| Cc1cc(N2CC[C@](C)(c3ccccc3)C2)cn2nc(C(=O)N3CC(C(=O)O)C4(COC4)C3)nc12 (stereo partly drawn) [Compound 603] | ***** (>2.5° C.=*****) |
| Cc1cc(N2CC[C@](C)(c3ccccc3)C2)cn2nc(C(=O)N3CC4COCC4(C(=O)O)C3)nc12 (stereo partly drawn) [Compound 604] | ***** (>2.5° C.=*****) |
| Cc1cc(N2CC[C@](C)(c3ccccc3)C2)cn2nc(C(=O)N3CCC4(CCCC(C(=O)O)C4)C3)nc12 (stereo partly drawn) [Compound 606] | ***** (>2.5° C.=*****) |
| Cc1cc(N2CC[C@](C)(c3ccccc3)C2)cn2nc(C(=O)NC3CCN(c4cccc(S(C)(=N)=O)n4)CC3)nc12 (stereo partly drawn) [Compound 608, 8-methyl-6-[(3R)-3-methyl-3-phenyl-pyrrolidin-1-yl]-N-[1-[6-(methylsulfonimidoyl)-2-pyridyl]-4-piperidyl]-[1,2,4]triazolo[1,5-a]pyridine-2-carboxamide] | ***** (>2.5° C.=*****) |
| Cc1cc(N2CC[C@](C)(c3ccccc3)C2)cn2nc(C(=O)N3CCC4(CCN(c5ccc(C(N)=O)c(C(=O)O)n5)C4)C3)nc12 (stereo partly drawn) [Compound 610] | ***** (>2.5° C.=*****) |
| Cc1cc(N2CC[C@](C)(c3ccccc3)C2)cn2nc(C(=O)N3CCC4C3CCN4c3cccc(C(=O)O)n3)nc12 (stereo partly drawn) [Compound 611] | ***** (>2.5° C.=*****) |
| COC1(CNC(=O)c2nc3c(C)cc(N4CC[C@](C)(c5ccccc5)C4)cn3n2)CN(c2cccc(C(=O)O)n2)C1 [Compound 612] | ***** (>2.5° C.=*****) |
| Cc1cc(N2CC[C@](C)(c3ccccc3)C2)cn2nc(C(=O)NCC3(O)CN(c4cccc(C(=O)O)n4)C3)nc12 [Compound 613] | ***** (>2.5° C.=*****) |
| Cc1cc(N2CC[C@](C)(c3ccccc3)C2)cn2nc(C(=O)N3CCC34CN(c3cccc(C(=O)O)n3)C4)nc12 [Compound 615] | **** (>1.5-2.5° C.=****) |
| Cc1cc(N2CC[C@](C)(c3ccccc3)C2)cn2nc(C(=O)N3CCC(Nc4cccc(C(=O)O)n4)C3)nc12 (stereo partly drawn) [Compound 616] | ***** (>2.5° C.=*****) |
| Cc1cc(N2CC[C@](C)(c3ccccc3)C2)cn2nc(C(=O)NC3(C)CCCN(c4cccc(C(=O)O)n4)C3)nc12 (stereo partly drawn) [Compound 617] | ***** (>2.5° C.=*****) |

| SMILES | DSF |
| --- | --- |
| C[C@]1(c2ccccc2)CCN(c2cc(CO)c3nc(C(=O)N4CCC5(C4)CN(c4cccc(C(=O)O)n4)C5)nn3c2)C1 [Compound 618] | ***** (>2.5° C.=*****) |
| COc1cc(N2CCC3(CCN(C(=O)c4nc5c(C)cc(N6CC[C@](C)(c7ccccc7)C6)cn5n4)C3)C2)cc(C(=O)O)n1 (stereo partly drawn) [Compound 619] | ***** (>2.5° C.=*****) |
| Cc1cc(N2CC[C@](C)(c3ccccc3)C2)cn2nc(C(=O)NC3CCC4CCC3N4c3cccc(C(=O)O)n3)nc12 (stereo partly drawn) [Compound 620] | ***** (>2.5° C.=*****) |
| Cc1cc(N2CC[C@](C)(c3ccccc3)C2)cn2nc(C(=O)N3CCC4(CCN4c4ccnc(C(=O)O)c4)C3)nc12 (stereo partly drawn) [Compound 621] | ***** (>2.5° C.=*****) |
| Cc1cc(N2CC[C@](C)(c3ccccc3)C2)cn2nc(C(=O)N3CC4C(C3)C4Nc3cccc(C(=O)O)n3)nc12 (stereo partly drawn) [Compound 622] | ***** (>2.5° C.=*****) |
| Cc1cc(N2CC[C@](C)(c3ccccc3)C2)cn2nc(C(=O)N[C@H]3C[C@]4(CCN(c5cccc(C(=O)O)n5)C4)C3)nc12 [Compound 623] | ***** (>2.5° C.=*****) |
| Cc1cc(N2CC[C@](C)(c3ccccc3)C2)cn2nc(C(=O)N[C@H]3C[C@@]4(CCN(c5cccc(C(=O)O)n5)C4)C3)nc12 [Compound 624] | ***** (>2.5° C.=*****) |
| COc1ccc(N2CCC3(CCN(C(=O)c4nc5c(C)cc(N6CC[C@](C)(c7ccccc7)C6)cn5n4)C3)C2)nc1C(=O)O (stereo partly drawn) [Compound 625] | ***** (>2.5° C.=*****) |
| Cc1cc(N2CC[C@](C)(c3ccccc3)C2)cn2nc(C(=O)N3CCC4(CCN(c5cc(C(=O)O)cnn5)C4)C3)nc12 (stereo partly drawn) [Compound 626] | ***** (>2.5° C.=*****) |
| Cc1ccc(N2CCC3(CCN(C(=O)c4nc5c(C)cc(N6CC[C@](C)(c7ccccc7)C6)cn5n4)C3)C2)nc1C(=O)O (stereo partly drawn) [Compound 627] | ***** (>2.5° C.=*****) |
| Cc1cc(N2CC[C@](C)(c3ccccc3)C2)cn2nc(C(=O)N[C@H]3[C@@H]4CN(c5cccc(C(=O)O)n5)C[C@@H]43)nc12 [Compound 628] | ***** (>2.5° C.=*****) |
| Cc1cc(N2CC[C@](C)(c3ccccc3)C2)cn2nc(C(=O)N3CC4CCN(c5cccc(C(=O)O)n5)CC43)nc12 (stereo partly drawn) [Compound 629] | ***** (>2.5° C.=*****) |
| COc1cc(N2C[C@H]3CN(C(=O)c4nc5c(C)cc(N6CC[C@](C)(c7ccccc7)C6)cn5n4)C[C@H]3C2)cc(C(=O)O)n1 [Compound 630] | ***** (>2.5° C.=*****) |
| CCC1(c2ccccc2)CN(c2cc(C)c3nc(C(=O)N4C[C@@H]5CN(c6cccc(C(=O)O)n6)C[C@@H]5C4)nn3c2)C1 [Compound 631] | ***** (>2.5° C.=*****) |
| Cc1cc(N2CC[C@](C)(c3ccccc3)C2)cn2nc(C(=O)NC3CC[C@@H]3Nc3cccc(C(=O)O)n3)nc12 (stereo partly drawn) [Compound 635] | ***** (>2.5° C.=*****) |
| Cc1cc(N2CC[C@](C)(c3ccccc3)C2)cn2nc(C(=O)N3CC4CN(c5cccc(C(=O)O)n5)CC4(C#N)C3)nc12 (stereo partly drawn) [Compound 636, 6-[3a-cyano-5-[8-methyl-6-[(3R)-3-methyl-3-phenyl-pyrrolidin-1-yl]-[1,2,4]triazolo[1,5-a]pyridine-2-carbonyl]-3,4,6,6a-tetrahydro-1H-pyrrolo[3,4-c]pyrrol-2-yl]pyridine-2-carboxylic acid] | ***** (>2.5° C.=*****) |
| Cc1cc(N2CC[C@](C)(c3ccccc3)C2)cn2nc(C(=O)N3CCc4c(nnn4C4CCC(C(=O)O)C4)C3)nc12 (stereo partly drawn) [Compound 638] | ***** (>2.5° C.=*****) |
| Cc1cc(N2CC[C@](C)(c3ccccc3)C2)cn2nc(C(=O)N3CCc4c(nnn4-c4ccnc(C(=O)O)c4)C3)nc12 [Compound 639] | ***** (>2.5° C.=*****) |
